Data: US9622469B2, “Crosslink breakers for preservation of biological substances” (priority 2013, dated 2017)
Marks after values point to notes of the source that are not given here.

Experiments:
[1] = Cleavage of PPD (3) to benzoic acid by NHC precursors, Method B (MeCN co-solvent); format: biochemical; conditions: for Benzoic acid formation from 3 (in words): Method B screen of NHC precursors; for Yield (%) of benzoic acid from cleavage of 3: MeCN/pH 7.4 phosphate buffer, 37° C., LCMS peak integration with respect to 3, background 5%
Description: (§1) Dicarbonyl cleavage reactions were performed using either the method described in Vasan et al., An agent cleaving glucose-derived protein crosslinks in vitro and in vivo, Nature (1996) Vol. 382, pp. 275-278 (Method A) or a modified method with MeCN as a co-solvent (Method B).
(§2) 60 mM solution of dicarbonyl substrate (45 μmol) in MeCN (0.75 ml) was added to 20 mM solution of NHC (15 μmol) in 0.15 M pH 7.4 sodium phosphate buffer (0.75 ml) and kept stirred at 37° C. At stated times, 75 μl aliquots were taken, diluted with 50% MeCN/H2O (425 μl) and analyzed by LCMS with 2,4-dihydroxyquinoline (248 μM) as an internal standard. The cleavage products were quantified by peak integration against the calibration curves.
Thus, our first goal in these studies was to assess the ability of various NHC precursors to induce the degradation of the dicarbonyl model substrate (PPD, 3). To this end, we screened the thiazolium (4-6), benzothiazolium (7), triazolium (8,9) and imidazolium (10) halide substructures shown in Table 1.

[2] = Cleavage of PPD by NHC precursors, Method A (alcoholic co-solvent); format: biochemical; conditions: for Combined % Yield (PhCO2H, PhCO2Me): co-solvent MeOH
Description: as §1
PPD (21 μl, 156 μmol) was added to a murky solution of NHC (2 or 4, 71 μmol) in 50% MeOH/0.5 M pH 7.4 sodium phosphate buffer (3.5 ml/3.5 ml; final conc. 10 mM NHC, 22 mM PPD) and kept stirred at 37° C. Approximately 0.5 ml aliquots were taken at stated times and analyzed by HPLC. Experiments using EtOH or iPrOH as a co-solvent were done in the same manner. Concentrations of benzoic acid and benzoate esters were determined by peak integration against the calibration curves.
Having learned that ALT-711 performed best among NHCs evaluated for PPD cleavage, we sought to test its substrate scope versus its N-benzyl counterpart (4). We therefore measured product distribution and yield while varying the co-solvent used to solubilize dicarbonyl substrates. As summarized in Table 2, we first investigated the performance of alcoholic co-solvents in PPD cleavage reactions. […] Despite this, however, the product distributions differed substantially: ALT-711 (2) predominantly afforded benzoic acid (PhCO2H:PhCO2Me=3.2:1, Entry 2), whereas 4 mostly gave rise to methyl benzoate (PhCO2H:PhCO2Me=1:2.2, Entry 4). Further replacement of the co-solvent with EtOH and i-PrOH in 4-catalyzed reactions led to a decrease in the proportion of ester production, still without altering overall yield (Entries 5 and 6).

[3] = system: mouse RBC; test: Storage of leukoreduced mouse blood in CPDA-1 at 4° C.: hemolysis and intact RBC count; format: cell-based; conditions: CPDA-1 buffer
Description: FIG. 1 illustrates OCR6043-mediated prolonging of the integrity of stored RBCs. Leuko reduced mouse blood was stored under FDA-approved storage conditions (CPDA-1 buffer at 4° C.) for up to 13 days, in either OCR6043, control compound (structurally similar to OCR6043, but nonfunctional as a AGE crosslink breaker), or without any additive.
This solution was stored at 4° C. according to FDA-approved conditions for 13 days. […] The steps to collect HOD blood from mice and the addition of the FDA-approved storage buffer CPDA are described in Hendrickson et al., Transfusion of fresh murine red blood cells reverses adverse effects of older stored red blood cells, Transfusion (2011) Vol. 12, pp. 2695-2702.
We also counted the intact RBCs using a hemocytometer after 13 days of storage as also depicted in FIG. 1.

[4] = system: HOD alloantigen on stored RBCs; test: Immunogenicity of stored blood upon transfusion (anti-HOD IgG ELISA); format: in vivo, mouse; conditions: blood stored 14 days, transfused into B6 mice, 14 days following transfusion
Description: Leuko-reduced mouse blood was stored under typical storage conditions for up to 14 days, in either OCR6043, control compound, or without any treatment. FIG. 2A illustrates an analysis of glucose in the serum from the stored blood was evaluated using a glucose oxidase enzymatic assay. […] FIG. 2B illustrates the AGE precursor levels on RBCs were measured using a dicarbonyl-specific fluorophore that was developed in-house. The time dependent increase in the AGE precursor levels was dampened in the presence of OCR6043. FIG. 2C illustrates mouse blood that was stored for 14 days, was evaluated for its immunogenicity upon transfusion, by testing for IgGs against an alloantigen on the RBCs (HOD=HEL-OVA-Duffy).
OCR6043 treatment decreases immunogenicity, and enhances post-transfusion recovery of stored mouse blood. Leukoreduced mouse blood was stored under typical storage conditions for up to 14 days in either OCR6043 or without any treatment. This mouse blood was evaluated for its immunogenicity upon transfusion by testing for IgGs against an alloantigen on the RBCs (HOD=HEL-OVA-Duffy).
As described herein, the stored blood has an HOD marker allowing facile detection after transfusion. We transfused […] of stored blood into B6 mice (not expressing the HOD antigen). […] The anti-HOD IgG response was evaluated using standard ELISA techniques described in Hendrickson et at.

[5] = physiological conditions; cited from earlier work
[6] = NHC-mediated cleavage of bis-alkyl diketone 14, Method B; format: biochemical; conditions: LCMS, with respect to dicarbonyl
Description: as §2
(§3) Our efforts to investigate the scope of thiazolium salt-mediated reactions with dicarbonyls began with bis-alkyl diketone 14 (Table 3, Entry 1). This substrate is cleaved cleanly by 2, and affords acid 18 in 82% yield. NHC precursor 4, on the other hand, provides 18 in only 14% yield (Entry 2). The efficiency of dicarbonyl cleavage reactions decreases substantially in the case of benzil (15, Entry 3), which affords benzoic acid in 14% and 1% yield following exposure to 2 and 4, respectively.

[7] = NHC-mediated cleavage of benzil (15), Method B; format: biochemical; conditions: LCMS, with respect to dicarbonyl
Description: as §2, §3

[8] = NHC-mediated reaction with α-keto aldehyde phenylglyoxal (16), Method B; format: biochemical; conditions: LCMS, phenylglyoxal alone gives 25% benzoic acid
Description: as §2
Phenylglyoxal hydrate (16; 114 mg, 0.75 mmol, 2 eq) was added to a solution of ALT-711 (2; 100 mg, 0.37 mmol) in 50% MeCN/0.15 M pH 7.4 phosphate buffer (total vol. 37 ml) and kept stirred at room temperature for 15 mins. The reaction mixture was cooled to −20° C. to precipitate out sodium phosphate as white crystals. The supernatant was transferred, and the residue was washed with MeCN and combined with the supernatant. This yellow clear solution was concentrated at room temperature to remove MeCN and purified by HPLC (16-27MeCN over 31 min). […]
Reactions involving α-keto aldehyde derivatives 16 and 17 followed an unexpected course. Treatment of these substrates with 2 led to instantaneous, high-yield production of a diastercomeric mixture of cycloadducts (19 and 20) that decompose to complex mixtures under the reaction conditions with half-lives of approximately 3 h Structures were determined based on in-depth NMR analysis (see Supplementary Material).

| SMILES | Benzoic acid formation from 3 (in words) [1] | Yield (%) of benzoic acid from cleavage of 3 ([1]; Method B) | further results |
| --- | --- | --- | --- |
| [Cl-].c1ccc(C[n+]2csc3ccccc32)cc1 [Compound 7] | no observable levels of benzoic acid | – | – |
| O=C(C[n+]1ccsc1)c1ccccc1.[Br-] [Compound 1, N-phenacylthiazolium bromide] | – | – | Combined % Yield (PhCO2H, PhCO2Me) [2]: 39%; RBC viability / intact RBCs (hemocytometer) ([3]; 13 days): higher levels of intact RBCs; Immunogenicity upon transfusion (IgG against HOD alloantigen) [4]: lower immunogenicity; Half-life of decomposition [5]: 44 min |
| Cc1c(CCO)sc[n+]1Cc1ccccc1.[Cl-] [Compound 5] | substantially lower yields | – | – |
| Cn1c[n+](CC(=O)c2ccccc2)cn1.[Cl-] [MPTC, 1-methyl-4-phenacyl-triazolium chloride] | – | – | Hemolysis of stored blood (supernatant appearance) ([3]; up to 13 days, 12 mM): hemolysis |
| Cc1sc[n+](CC(=O)c2ccccc2)c1C.[Cl-] [drawing 8] | – | 60% | – |
| Cc1sc[n+](Cc2ccccc2)c1C.[Cl-] [Compound 4, 3-benzyl-4,5-dimethylthiazol-3-ium chloride] | substantially lower yields | – | Combined % Yield (PhCO2H) ([1]; co-solvent MeCN, Method B, LCMS, with respect to dicarbonyl): 20%; Combined % Yield (PhCO2H, PhCO2Et) ([2]; co-solvent EtOH): 60%; Combined % Yield (PhCO2H, PhCO2Me) [2]: 62%; Combined % Yield (PhCO2H, PhCO2iPr) ([2]; co-solvent i-PrOH): 58%; % Yield of acid 18 from substrate 14 [6]: 14%; % Yield of PhCO2H from substrate 15 (benzil) [7]: 1%; % Yield of PhCO2H from substrate 16 [8]: 30^c % |
| Cc1sc[n+](Cc2ccccc2)c1C | – | 20% | – |
| Cc1c(CCO)sc[n+]1Cc1ccccc1.[Cl-] [drawing 10] | – | 14% | – |
| Cn1c[n+](Cc2ccccc2)cn1.[Cl-] [drawing 13] | – | 0^b % | – |
| Cn1c[n+](Cc2ccccc2)cn1.[Cl-] [Compound 8] | no observable levels of benzoic acid | – | – |
| Cn1cc[n+](CC(=O)c2ccccc2)c1.[Cl-] [Compound 10] | did not produce any benzoic acid | – | – |
| Cn1cc[n+](CC(=O)c2ccccc2)c1.[Cl-] [drawing 15] | – | 0^b % | – |
| [Cl-].c1ccc(C[n+]2csc3ccccc32)cc1 [drawing 12] | – | 0^b % | – |
| Cn1c[n+](CC(=O)c2ccccc2)cn1.[Cl-] [Compound 9] | restores the reactivity to a small extent | – | – |
| Cn1c[n+](CC(=O)c2ccccc2)cn1.[Cl-] [drawing 14] | – | 12% | – |
